Assay results as given in patent US8586505B2 (SDS Biotech K. K., priority 2009, dated 2013).

How the values were obtained:
Type in all cases: in vivo
Phytophthora infestans = test: whole plant or invertebrate; conditions: in Solanum lycopersicum, 96 h, read-out: Determination of control effect (preventive value)
[1] = system: Pseudoperonospora cubensis; test: Test of examining control effect on Pseudoperonospora cubensis (potted cucumber plants); conditions: 96 h, 10% wettable powder adjusted to 125 ppm, 15 ml/pot sprayed on potted cucumber plants one day before spray inoculation, assessed after 1 day wet chamber and 3 days greenhouse, read-out: Determination of control effect (preventive value) on Pseudoperonospora cubensis
Protocol: (§1) Calculation of Preventive Value: Preventive value={(untreated lesion area rate−treated lesion area rate)/untreated lesion area rate}×100
(§2) Using the thus calculated preventive value, the control effect of each compound was determined in accordance with the following standards.
(§3) High control effect: 100%≧preventive value≧60%
(§4) Low control effect: 60%>preventive value≧0%
Using a spray gun, an agent solution prepared by adjusting a 10% wettable powder of each sample compound to 125 ppm (hereinafter referred to as a “sample agent solution”) was sprayed to potted cucumber plants (variety: Sagamihanjiro, 2.5 leave stage) in a concentration of 15 ml/pot. One day after the spraying, a conidial suspension of Pseudoperonospora cubensis (conidial concentration: 1.0×10^4 cells/ml) was applied to the plants by spray inoculation. After completion of the inoculation, the plants were left at 21° C. under wet chamber conditions for 1 day, and were then left in a greenhouse for 3 days, so that they were fully infected with the aforementioned disease. Thereafter, the disease level on each leaf was compared with that on an untreated leaf, and the control effect of each compound was determined in the same manner as in Example 3(1).

Sphaerotheca fuliginea = test: Test of examining control effect on Sphaerotheca fuliginea (potted cucumber plants); conditions: Podosphaera fuliginea, 336 h; 10% wettable powder adjusted to 125 ppm, 15 ml/pot sprayed on potted cucumber plants one day before spray inoculation; assessed after 14 days in greenhouse; read-out: Determination of control effect (preventive value) on Sphaerotheca fuliginea
Protocol: as §1, §2, §3, §4
Using a spray gun, an agent solution prepared by adjusting a 10% wettable powder of each sample compound to 125 ppm (hereinafter referred to as a “sample agent solution”) was sprayed to potted cucumber plants (variety: Sagamihanjiro, 2nd leave stage) in a concentration of 15 ml/pot. One day after the spraying, a conidial suspension of Sphaerotheca fuliginea (conidial concentration: 1.0×10^5 cells/ml) was applied to the plants by spray inoculation. The plants were left in a greenhouse for 14 days, so that they were fully infected with the aforementioned disease. Thereafter, the disease level on each leaf was compared with that on an untreated leaf, and the control effect of each compound was determined in the same manner as in Example 3(1).

SMILES	pest or weed control at 125 ppm (Phytophthora infestans) [%]	pest or weed control at 125 µg/mL [1] [%]	pest or weed control at 125 µg/mL (Sphaerotheca fuliginea) [%]
COc1ccccc1C#CCCNc1ncnc2ccccc12 [compound 115]	60 to 100	60 to 100	60 to 100
CSc1ccc(C#CCCNc2ncnc3ccccc23)cc1 [compound 117]	60 to 100	60 to 100	60 to 100
CC(C)Oc1ccccc1C#CCCNc1ncnc2ccccc12 [compound 119]	60 to 100	60 to 100	60 to 100
COCOc1ccc(C#CCCNc2ncnc3ccccc23)cc1 [compound 121]	60 to 100	60 to 100	60 to 100
CN(C)S(=O)(=O)c1ccc(C#CCCNc2ncnc3ccccc23)cc1 [compound 122]	0 to 60	60 to 100	0 to 60
CS(=O)(=O)Nc1ccc(C#CCCNc2ncnc3ccccc23)cc1 [compound 123]	0 to 60	60 to 100	0 to 60
CN(c1ccc(C#CCCNc2ncnc3ccccc23)cc1)S(C)(=O)=O [compound 124]	0 to 60	60 to 100	0 to 60
COC(=O)N(OC)c1ccccc1C#CCCNc1ncnc2ccccc12 [compound 125]	60 to 100	60 to 100	0 to 60
CNC(=O)c1ccc(C#CCCNc2ncnc3ccccc23)cc1 [compound 126]	60 to 100	60 to 100	0 to 60
O=C(O)c1ccc(C#CCCNc2ncnc3ccccc23)cc1 [compound 127]	60 to 100	60 to 100	60 to 100
CC(=O)c1ccc(C#CCCNc2ncnc3ccccc23)cc1 [compound 128]	60 to 100	60 to 100	60 to 100
OCc1ccccc1C#CCCNc1ncnc2ccccc12 [compound 130]	60 to 100	60 to 100	60 to 100
COCc1ccccc1C#CCCNc1ncnc2ccccc12 [compound 133]	60 to 100	60 to 100	60 to 100
FC(F)OCc1ccccc1C#CCCNc1ncnc2ccccc12 [compound 134]	60 to 100	60 to 100	60 to 100
COCc1cccc(C#CCCNc2ncnc3ccccc23)c1 [compound 135]	0 to 60	60 to 100	0 to 60
COCc1ccc(C#CCCNc2ncnc3ccccc23)cc1 [compound 136]	0 to 60	60 to 100	60 to 100
COC(C)c1ccccc1C#CCCNc1ncnc2ccccc12 (stereo not drawn) [compound 137]	0 to 60	60 to 100	60 to 100
COCc1cc(F)ccc1C#CCCNc1ncnc2ccccc12 [compound 139]	60 to 100	60 to 100	60 to 100
COCc1cc(Cl)ccc1C#CCCNc1ncnc2ccccc12 [compound 140]	60 to 100	60 to 100	60 to 100
COCc1cccc(F)c1C#CCCNc1ncnc2ccccc12 [compound 141]	60 to 100	60 to 100	60 to 100
